Laboratory results: PubChem BioAssay AID248 (DTP/NCI, 2004)
“And” between values parts separate entries of the source, which are not always exact repeats. Identical values can stand only once. Inconclusive results and toxic doses are left out. Rule as the data show it: active = T/C of 150% or more; inactive = T/C below 125%.

Test system: L1210 leukemia ip in BDF1 mice, survival T/C
Assay: NCI In Vivo Anticancer Drug Screen. Data for tumor model L1210 Leukemia (intraperitoneal) in B6D2F1 (BDF1) mice
Conditions: endpoint: mean survival time, higher = longer survival
Outline: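 Tumor cells were implanted, animals were treated, and survival was followed. The result divides the treated measurement by the vehicle-control measurement.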

[1] = dose: 100.0 mg/kg/injection, schedule: Q04DX003 (ip), vehicle: saline with Tween-80
[2] = dose: 100.0 mg/kg/injection, schedule: Q01DX001 (ip), vehicle: carboxymethylcellulose (CMC)
[3] = dose: 200.0 mg/kg/injection, schedule: Q01DX001 (ip), vehicle: carboxymethylcellulose (CMC)
[4] = dose: 400.0 mg/kg/injection, schedule: Q01DX001 (ip), vehicle: carboxymethylcellulose (CMC)
[5] = dose: 50.0 mg/kg/injection, schedule: Q04DX003 (ip), vehicle: Klucel (hydroxypropylcellulose) (HPC)
[6] = dose: 100.0 mg/kg/injection, schedule: Q04DX003 (ip), vehicle: Klucel (hydroxypropylcellulose) (HPC)
[7] = dose: 200.0 mg/kg/injection, schedule: Q04DX003 (ip), vehicle: Klucel (hydroxypropylcellulose) (HPC)
[8] = dose: 200.0 mg/kg/injection, schedule: Q04DX003 (ip), vehicle: saline with Tween-80
[9] = dose: 400.0 mg/kg/injection, schedule: Q04DX003 (ip), vehicle: saline with Tween-80
[10] = dose: 100.0 mg/kg/injection, schedule: Q01DX009 (ip), vehicle: saline
[11] = dose: 100.0 mg/kg/injection, schedule: Q04DX003 (ip), vehicle: saline
[12] = dose: 200.0 mg/kg/injection, schedule: Q04DX003 (ip), vehicle: saline
[13] = dose: 400.0 mg/kg/injection, schedule: Q04DX003 (ip), vehicle: saline
[14] = dose: 100.0 mg/kg/injection, schedule: Q01DX001 (ip), vehicle: saline
[15] = dose: 200.0 mg/kg/injection, schedule: Q01DX001 (ip), vehicle: saline
[16] = dose: 400.0 mg/kg/injection, schedule: Q01DX001 (ip), vehicle: saline
[17] = dose: 12.5 mg/kg/injection, schedule: Q04DX003 (ip), vehicle: Klucel (hydroxypropylcellulose) (HPC)
[18] = dose: 25.0 mg/kg/injection, schedule: Q01DX009 (ip), vehicle: Klucel (hydroxypropylcellulose) (HPC)
[19] = dose: 25.0 mg/kg/injection, schedule: Q04DX003 (ip), vehicle: Klucel (hydroxypropylcellulose) (HPC)
[20] = dose: 50.0 mg/kg/injection, schedule: Q01DX009 (ip), vehicle: Klucel (hydroxypropylcellulose) (HPC)
[21] = dose: 400.0 mg/kg/injection, schedule: Q04DX003 (ip), vehicle: Klucel (hydroxypropylcellulose) (HPC)

Measured: T/C

O=[N+]([O-])/C=C/c1ccccc1F
inactive: dose: 18.75 mg/kg/injection, schedule: Q04DX003 (ip), vehicle: Klucel (hydroxypropylcellulose) (HPC) 95 % of control | dose: 37.5 mg/kg/injection, schedule: Q04DX003 (ip), vehicle: Klucel (hydroxypropylcellulose) (HPC) 98 % of control | dose: 75.0 mg/kg/injection, schedule: Q04DX003 (ip), vehicle: Klucel (hydroxypropylcellulose) (HPC) 91 % of control

O=C1C=C(c2ccccc2)C(c2ccccc2)C1=O (stereo not drawn)
inactive: dose: 50.0 mg/kg/injection, schedule: Q04DX002 (ip), vehicle: Klucel (hydroxypropylcellulose) (HPC) 106 % of control | dose: 100.0 mg/kg/injection, schedule: Q04DX002 (ip), vehicle: Klucel (hydroxypropylcellulose) (HPC) 98 % of control | dose: 200.0 mg/kg/injection, schedule: Q04DX002 (ip), vehicle: Klucel (hydroxypropylcellulose) (HPC) 95 % of control and 111 % of control | dose: 400.0 mg/kg/injection, schedule: Q04DX002 (ip), vehicle: Klucel (hydroxypropylcellulose) (HPC) 93 % of control

c1ccc(-c2oc3cc4c(cc3c2-c2ccc(OCCN3CCCC3)cc2)CCC4)cc1
inactive: [1] 90 % of control

O=C(Nc1cccc([N+](=O)[O-])c1)N1CCCC1
inactive: [2] 98 % of control | [3] 102 % of control | [4] 100 % of control

O=C(COc1cccc(Cl)c1)Nc1cccc(CN2C(=O)c3ccccc3C2=O)c1
inactive: [5] 96 % of control | [6] 98 % of control | [7] 95 % of control

CCOC(=O)NS(=O)(=O)[N+](CC)(CC)CC
inactive: [2] 97 % of control | [3] 97 % of control | [4] 100 % of control

O=P(O)(c1ccccc1)c1cccc(Cl)c1
inactive: [1] 100 % of control | [8] 91 % of control | [9] 94 % of control

Cc1nccc(=O)[nH]1
inactive: [10] 99 % of control | [11] 106 % of control | dose: 200.0 mg/kg/injection, schedule: Q01DX009 (ip), vehicle: saline 99 % of control | [12] 106 % of control | [13] 92 % of control

CC12CCC(=O)C=C1CCC1C2C(=O)CC2(C)C1CCC2(O)C(=O)CSc1ncnc2nc[nH]c12 (stereo not drawn)
inactive: dose: 100.0 mg/kg/injection, schedule: Q01DX001 (sc), vehicle: steriod suspending solution 103 % of control | dose: 200.0 mg/kg/injection, schedule: Q01DX001 (sc), vehicle: steriod suspending solution 106 % of control | dose: 400.0 mg/kg/injection, schedule: Q01DX001 (sc), vehicle: steriod suspending solution 112 % of control

O=C(NC12CC3CC(CC(C3)C1)C2)C(O)C(O)C(O)C(O)CO (stereo not drawn)
inactive: [14] 110 % of control | [15] 100 % of control | [16] 100 % of control

COCCNC(=O)NS(=O)(=O)c1ccc(C)cc1
inactive: [1] 98 % of control | [8] 98 % of control | [9] 96 % of control

NC(c1ccccc1)(c1ccccc1)c1ccccc1
inactive: [14] 101 % of control | [15] 101 % of control | [16] 101 % of control

C=CCC1(Cc2ccsc2)C(=O)NC(=O)NC1=O
inactive: [2] 90 % of control | [3] 92 % of control | [4] 100 % of control

CCOC(=O)/C(O)=C\c1nnc(Cl)cc1Cl
inactive: dose: 75.0 mg/kg/injection, schedule: Q04DX002 (ip), vehicle: Klucel (hydroxypropylcellulose) (HPC) 93 % of control | dose: 150.0 mg/kg/injection, schedule: Q04DX002 (ip), vehicle: Klucel (hydroxypropylcellulose) (HPC) 96 % of control | dose: 300.0 mg/kg/injection, schedule: Q04DX002 (ip), vehicle: Klucel (hydroxypropylcellulose) (HPC) 116 % of control

CCN1CSC(=S)N(CC)C1
inactive: [17] 96 % of control | [18] 103 % of control | [19] 112 % of control | [20] 109 % of control | [5] 103 % of control

C=CC(C)(C)C(=C)C
inactive: [11] 110 % of control | [12] 108 % of control | [13] 101 % of control

CCCCCCCCOC(=O)c1ccccc1C(=O)OCCCCCCCC
inactive: dose: 100.0 mg/kg/injection, schedule: Q01DX009 (ip), vehicle: Klucel (hydroxypropylcellulose) (HPC) 96 % of control | [6] 97 % of control | dose: 200.0 mg/kg/injection, schedule: Q01DX009 (ip), vehicle: Klucel (hydroxypropylcellulose) (HPC) 94 % of control | [7] 93 % of control | dose: 400.0 mg/kg/injection, schedule: Q01DX009 (ip), vehicle: Klucel (hydroxypropylcellulose) (HPC) 96 % of control | [21] 92 % of control

O=NN1C(=O)C2CC3CC(C2)CC1C3
inactive: dose: 3.12 mg/kg/injection, schedule: Q01DX009 (ip), vehicle: saline with Tween-80 91 % of control | dose: 6.25 mg/kg/injection, schedule: Q01DX009 (ip), vehicle: saline with Tween-80 107 % of control | dose: 12.5 mg/kg/injection, schedule: Q01DX009 (ip), vehicle: saline with Tween-80 96 % of control

NNP(=O)(Oc1ccccc1)Oc1ccccc1
inactive: dose: 50.0 mg/kg/injection, schedule: Q01DX009 (ip), vehicle: saline 108 % of control | dose: 75.0 mg/kg/injection, schedule: Q01DX001 (ip), vehicle: acetone 110 % of control | [10] 124 % of control | dose: 150.0 mg/kg/injection, schedule: Q01DX001 (ip), vehicle: acetone 103 % of control | dose: 300.0 mg/kg/injection, schedule: Q01DX001 (ip), vehicle: acetone 97 % of control

CCCCCC(/C=N\NC(=O)CCCC(=O)N/N=C/C(=C/c1ccccc1)CCCCC)=C\c1ccccc1
inactive: dose: 50.0 mg/kg/injection, schedule: Q01DX001 (ip), vehicle: saline 89 % of control | [14] 95 % of control | [15] 97 % of control | [16] 89 % of control

C[N+]1(CC(O)COc2ccc(Nc3ccc(N)c4c3C(=O)c3ccccc3C4=O)cc2)CCOCC1 (stereo not drawn)
inactive: dose: 100.0 mg/kg/injection, schedule: Q01DX001 (ip), vehicle: acetone 90 % of control

O=S(=O)(c1ccc(Cl)cc1)C(F)F
inactive: dose: 12.5 mg/kg/injection, schedule: Q01DX009 (ip), vehicle: Klucel (hydroxypropylcellulose) (HPC) 89 % of control | [17] 91 % of control | [18] 93 % of control | [19] 89 % of control | [20] 91 % of control | [5] 97 % of control

Cc1c(C)n(C2OC(CO)C(O)C2O)c(=O)[nH]c1=O (stereo not drawn)
inactive: [14] 96 % of control | [15] 108 % of control | [16] 93 % of control

O=C(NCCF)NC1CS(=O)(=O)CS(=O)(=O)C1
inactive: dose: 9.5 mg/kg/injection, schedule: Q01DX001 (ip), vehicle: other 100 % of control | dose: 19.0 mg/kg/injection, schedule: Q01DX001 (ip), vehicle: other 105 % of control | dose: 38.0 mg/kg/injection, schedule: Q01DX001 (ip), vehicle: other 96 % of control

CN(C)C(=O)Sc1ccc([N+](=O)[O-])cc1Cl
inactive: [6] 107 % of control | [7] 101 % of control | [21] 101 % of control

Cc1cccc(NC(=O)OCCN(CCOC(=O)Nc2cccc(C)c2)c2cccc(C)c2)c1
inactive: [14] 88 % of control | [15] 90 % of control | [16] 94 % of control
